Assay results reported in the NIST ThermoML archive (doi:10.1021/acs.jced.5b00242).

Tests used:
[1] = xn = mol fraction of the nth substance listed; settings: 101 kPa, Liquid; for mass density: Vibrating tube method
[2] = refractive index (Na D-line) (dimensionless); xn = mol fraction of the nth substance listed; settings: 101 kPa, Liquid, Standard Abbe refractometry

CCn1cc[n+](C)c1.NCC(=O)[O-] [1-ethyl-3-methylimidazolium ammonioacetate] + CCn1cc[n+](C)c1.N#C[C-](C#N)C#N
viscosity [mPa·s], [1], Stabinger viscometer
Settings	x2 = 0	x2 = 0.2498	x2 = 0.5001	x2 = 0.7501
293.15 K	240.18	94.03	53.98	29.05
298.15 K	171.97	70.85	42.14	23.45
303.15 K	126.19	54.7	33.55	19.43
308.15 K	95.04	43.19	27.19	16.35
313.15 K	73.5	34.81	22.25	13.9
318.15 K	57.66	28.43	18.69	12.02
323.15 K	46.21	23.59	15.89	10.47
328.15 K	37.66	19.87	13.84	9.21
333.15 K	31.24	16.92	11.88	8.12
338.15 K	26.08	14.58	10.47	7.29
343.15 K	22.11	12.67	9.233	6.55
348.15 K	18.95	11.1	8.191	5.92
353.15 K	16.45	9.77	7.189	5.35

Settings	mass density, x2 = 0 [kg/m3]	mass density, x2 = 0.2498 [kg/m3]	mass density, x2 = 0.5001 [kg/m3]	mass density, x2 = 0.7501 [kg/m3]	refractive index, x2 = 0	refractive index, x2 = 0.2498	refractive index, x2 = 0.5001	refractive index, x2 = 0.7501
[1], 293.15 K	1164.3	1140.2	1118.4	1101.2	–	–	–	–
[1], 298.15 K	1161.2	1136.9	1115	1097.8	–	–	–	–
[1], 303.15 K	1158.1	1133.7	1111.7	1094.4	–	–	–	–
[1], 308.15 K	1155	1130.5	1108.4	1091	–	–	–	–
[1], 313.15 K	1152	1127.3	1105.2	1087.7	–	–	–	–
[1], 318.15 K	1149	1124.3	1102.1	1084.4	–	–	–	–
[1], 323.15 K	1146	1121.1	1098.9	1081	–	–	–	–
[1], 328.15 K	1143	1118	1095.7	1077.7	–	–	–	–
[1], 333.15 K	1139.9	1114.8	1092.5	1074.5	–	–	–	–
[1], 338.15 K	1136.9	1111.7	1089.3	1071.2	–	–	–	–
[1], 343.15 K	1133.8	1108.6	1086.1	1068	–	–	–	–
[1], 348.15 K	1130.7	1105.5	1082.9	1064.7	–	–	–	–
[1], 353.15 K	1127.4	1102.4	1079.7	1061.5	–	–	–	–
[2], 293.15 K	–	–	–	–	1.52134	1.52032	1.51815	1.51562
[2], 298.15 K	–	–	–	–	1.51997	1.51892	1.51656	1.51399
[2], 303.15 K	–	–	–	–	1.5186	1.51743	1.51505	1.51238
[2], 308.15 K	–	–	–	–	1.51724	1.51596	1.51355	1.5108
[2], 313.15 K	–	–	–	–	1.51585	1.51457	1.51205	1.50922
[2], 318.15 K	–	–	–	–	1.5145	1.51315	1.51057	1.50764
[2], 323.15 K	–	–	–	–	1.51313	1.51173	1.50908	1.50609
[2], 328.15 K	–	–	–	–	1.51179	1.51031	1.5076	1.50449
[2], 333.15 K	–	–	–	–	1.51041	1.5089	1.50613	1.50295
[2], 338.15 K	–	–	–	–	1.50904	1.50751	1.50462	1.50143
[2], 343.15 K	–	–	–	–	1.50769	1.50614	1.50315	1.49987
[2], 348.15 K	–	–	–	–	1.50637	1.50472	1.5017	1.49834
[2], 353.15 K	–	–	–	–	1.50495	1.50334	1.50021	1.49682

CCn1cc[n+](C)c1.NCCS(=O)(=O)[O-] [1-ethyl-3-methylimidazolium taurinate] + CCn1cc[n+](C)c1.N#C[C-](C#N)C#N
viscosity [mPa·s], [1], Stabinger Viscometer
Settings	x2 = 0	x2 = 0.2503	x2 = 0.5001	x2 = 0.7496
293.15 K	760.89	250.33	84.5	35.42
298.15 K	514.67	180.68	64.77	28.77
303.15 K	359.36	133.6	50.77	23.71
308.15 K	258.04	101.33	40.59	19.84
313.15 K	190.44	78.59	33.04	16.61
318.15 K	143.31	61.69	27.27	14.44
323.15 K	110.35	49.65	22.83	12.51
328.15 K	86.59	40.56	19.37	10.94
333.15 K	69.36	33.69	16.6	9.52
338.15 K	56.05	28.15	14.4	8.62
343.15 K	46.1	23.86	12.59	7.72
348.15 K	38.4	20.46	11.1	6.96
353.15 K	32.53	17.79	9.83	6.19

Settings	mass density, x2 = 0 [kg/m3]	mass density, x2 = 0.2503 [kg/m3]	mass density, x2 = 0.5001 [kg/m3]	mass density, x2 = 0.7496 [kg/m3]	refractive index, x2 = 0	refractive index, x2 = 0.2503	refractive index, x2 = 0.5001	refractive index, x2 = 0.7496
[1], 293.15 K	1255	1207.7	1164.8	1124.1	–	–	–	–
[1], 298.15 K	1251.5	1204.4	1161.4	1120.6	–	–	–	–
[1], 303.15 K	1248.1	1201.1	1158	1117.2	–	–	–	–
[1], 308.15 K	1244.8	1197.9	1154.7	1113.8	–	–	–	–
[1], 313.15 K	1241.6	1194.7	1151.4	1110.4	–	–	–	–
[1], 318.15 K	1238.6	1191.7	1148.2	1107.2	–	–	–	–
[1], 323.15 K	1235.5	1188.5	1145	1103.8	–	–	–	–
[1], 328.15 K	1232.4	1185.3	1141.7	1100.5	–	–	–	–
[1], 333.15 K	1229.2	1182.1	1138.4	1097.2	–	–	–	–
[1], 338.15 K	1226.1	1179	1135.2	1093.9	–	–	–	–
[1], 343.15 K	1223	1175.9	1132	1090.6	–	–	–	–
[1], 348.15 K	1219.9	1172.7	1128.8	1087.3	–	–	–	–
[1], 353.15 K	1216.8	1169.4	1125.6	1083.9	–	–	–	–
[2], 293.15 K	–	–	–	–	1.5135	1.51268	1.51322	1.51365
[2], 298.15 K	–	–	–	–	1.51217	1.51131	1.51166	1.5121
[2], 303.15 K	–	–	–	–	1.51084	1.50995	1.5102	1.51054
[2], 308.15 K	–	–	–	–	1.5095	1.50858	1.50871	1.50894
[2], 313.15 K	–	–	–	–	1.50816	1.50716	1.50723	1.50736
[2], 318.15 K	–	–	–	–	1.5068	1.50578	1.50574	1.50576
[2], 323.15 K	–	–	–	–	1.50543	1.50436	1.50428	1.5042
[2], 328.15 K	–	–	–	–	1.50403	1.50296	1.50286	1.50267
[2], 333.15 K	–	–	–	–	1.5027	1.50159	1.50142	1.50113
[2], 338.15 K	–	–	–	–	1.50136	1.50019	1.49996	1.49959
[2], 343.15 K	–	–	–	–	1.49997	1.49878	1.49854	1.4981
[2], 348.15 K	–	–	–	–	1.4986	1.49742	1.49709	1.49657
[2], 353.15 K	–	–	–	–	1.49726	1.49603	1.49563	1.49505
